{"source": "ChEMBL document CHEMBL3112417", "about": "“Design, synthesis, radiolabeling and in vivo evaluation of potential positron emission tomography (PET) radioligands for brain imaging of the 5-HT₇ receptor” (Bioorg Med Chem, 2014)", "key": {"[1]": {"biological_target": "T1, Adrenergic receptor alpha-1 (Rattus norvegicus, UniProt P15823+P23944+P43140)", "T1 sequence (P15823 whole entry)": "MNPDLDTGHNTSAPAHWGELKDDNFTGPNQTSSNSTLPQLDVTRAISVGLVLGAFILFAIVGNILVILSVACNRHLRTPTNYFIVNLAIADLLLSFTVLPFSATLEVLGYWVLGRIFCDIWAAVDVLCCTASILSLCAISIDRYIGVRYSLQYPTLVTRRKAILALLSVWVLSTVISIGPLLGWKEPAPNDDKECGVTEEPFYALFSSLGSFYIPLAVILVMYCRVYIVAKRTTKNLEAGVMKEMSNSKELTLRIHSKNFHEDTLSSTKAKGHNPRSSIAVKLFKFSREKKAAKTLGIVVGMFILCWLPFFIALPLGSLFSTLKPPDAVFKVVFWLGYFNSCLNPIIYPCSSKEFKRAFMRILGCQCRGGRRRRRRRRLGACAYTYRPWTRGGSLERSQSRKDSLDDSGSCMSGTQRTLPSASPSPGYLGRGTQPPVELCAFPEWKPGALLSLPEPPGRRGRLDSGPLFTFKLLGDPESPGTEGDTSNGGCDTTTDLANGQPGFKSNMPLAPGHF", "T1 sequence (P23944 whole entry)": "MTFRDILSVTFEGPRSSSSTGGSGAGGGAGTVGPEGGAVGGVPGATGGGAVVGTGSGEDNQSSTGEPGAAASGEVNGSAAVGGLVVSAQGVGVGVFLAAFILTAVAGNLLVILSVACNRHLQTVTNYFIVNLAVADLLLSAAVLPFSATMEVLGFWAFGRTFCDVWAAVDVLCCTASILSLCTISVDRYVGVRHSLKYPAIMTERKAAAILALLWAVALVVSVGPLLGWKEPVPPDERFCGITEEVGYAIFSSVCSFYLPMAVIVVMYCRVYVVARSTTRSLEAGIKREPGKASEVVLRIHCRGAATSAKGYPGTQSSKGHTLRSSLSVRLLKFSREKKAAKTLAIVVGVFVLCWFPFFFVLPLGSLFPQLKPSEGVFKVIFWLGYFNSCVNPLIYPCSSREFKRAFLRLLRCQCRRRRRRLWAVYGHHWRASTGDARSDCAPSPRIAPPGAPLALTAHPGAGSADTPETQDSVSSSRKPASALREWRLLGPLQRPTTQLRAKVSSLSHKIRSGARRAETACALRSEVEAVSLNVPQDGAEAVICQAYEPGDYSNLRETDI", "T1 sequence (P43140 whole entry)": "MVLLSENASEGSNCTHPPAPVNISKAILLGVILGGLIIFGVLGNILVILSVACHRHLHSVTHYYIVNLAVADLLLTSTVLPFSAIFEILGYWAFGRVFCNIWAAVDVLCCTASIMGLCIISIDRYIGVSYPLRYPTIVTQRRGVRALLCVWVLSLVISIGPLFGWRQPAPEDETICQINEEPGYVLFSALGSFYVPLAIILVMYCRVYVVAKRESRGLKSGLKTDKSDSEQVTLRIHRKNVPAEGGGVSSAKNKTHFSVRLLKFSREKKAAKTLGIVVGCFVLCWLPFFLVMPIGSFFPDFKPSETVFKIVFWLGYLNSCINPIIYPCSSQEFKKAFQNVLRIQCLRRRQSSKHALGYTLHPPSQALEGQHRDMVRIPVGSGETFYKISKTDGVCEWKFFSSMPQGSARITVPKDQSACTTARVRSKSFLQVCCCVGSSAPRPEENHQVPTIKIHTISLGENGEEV", "experiment": "Displacement of [3H]-prazosin from rat brain alpha1 adrenergic receptor after 50 mins"}, "[2]": {"biological_target": "T2, 5-hydroxytryptamine receptor 1A (Homo sapiens, UniProt P08908)", "T2 sequence (P08908 whole entry)": "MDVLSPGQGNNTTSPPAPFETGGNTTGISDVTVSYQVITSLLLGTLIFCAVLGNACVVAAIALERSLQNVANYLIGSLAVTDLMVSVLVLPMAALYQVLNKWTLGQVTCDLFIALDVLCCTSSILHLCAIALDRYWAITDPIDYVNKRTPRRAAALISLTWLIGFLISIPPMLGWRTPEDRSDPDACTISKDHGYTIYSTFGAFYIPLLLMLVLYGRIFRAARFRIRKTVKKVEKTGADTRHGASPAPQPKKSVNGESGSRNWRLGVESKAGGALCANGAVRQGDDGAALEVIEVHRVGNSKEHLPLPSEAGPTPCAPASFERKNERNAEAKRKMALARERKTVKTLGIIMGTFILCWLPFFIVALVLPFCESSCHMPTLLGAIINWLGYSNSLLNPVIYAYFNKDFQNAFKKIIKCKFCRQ", "experiment": "Displacement of [3H]8-OH-DPAT from human 5HT1A receptor transfected in HEK293-EBNA cells after 120 mins", "assay_type": "cell-based"}, "[3]": {"biological_target": "T3, 5-hydroxytryptamine receptor 7 (Homo sapiens, UniProt P34969)", "T3 sequence (P34969 whole entry)": "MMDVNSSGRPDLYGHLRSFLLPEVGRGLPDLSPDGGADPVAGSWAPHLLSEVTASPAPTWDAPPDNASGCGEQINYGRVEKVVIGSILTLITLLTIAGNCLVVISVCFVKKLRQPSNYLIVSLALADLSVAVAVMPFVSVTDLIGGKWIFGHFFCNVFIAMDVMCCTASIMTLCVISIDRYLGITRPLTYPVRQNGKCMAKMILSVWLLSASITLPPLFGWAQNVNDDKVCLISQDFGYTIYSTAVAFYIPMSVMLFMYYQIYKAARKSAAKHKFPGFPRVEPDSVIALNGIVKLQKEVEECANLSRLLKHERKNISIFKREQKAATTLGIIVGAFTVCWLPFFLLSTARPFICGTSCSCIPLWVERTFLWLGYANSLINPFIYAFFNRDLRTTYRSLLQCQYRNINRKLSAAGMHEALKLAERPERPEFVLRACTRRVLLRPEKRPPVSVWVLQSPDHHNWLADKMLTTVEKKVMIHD", "experiment": "Displacement of [3H]5-CT from human 5HT7 receptor transfected in HEK293 cells after 60 mins", "assay_type": "cell-based"}, "[4]": {"experiment": "Drug metabolism in Danish Landrace pig plasma assessed as compound remaining at 432 +/- 102 MBq, iv after 5 mins", "assay_type": "ADME, organism-based, Sus scrofa", "details": "read-out: Stability; call rule not given here"}, "[5]": {"experiment": "Drug uptake in Danish Landrace pig brain at 52 to 300 MBq, iv administered 90 mins prior to cyclosporine A challenge measured after 30 mins by PET imaging analysis", "assay_type": "ADME, organism-based, Sus scrofa", "details": "in vivo, 0.5 h"}, "[6]": {"experiment": "Drug uptake in Danish Landrace pig brain at 52 to 300 MBq, iv after 90 mins by PET imaging analysis", "assay_type": "ADME, organism-based, Sus scrofa", "details": "in vivo"}, "[7]": {"experiment": "Drug metabolism in rat liver S9 fraction assessed as compound remaining at 10 uM after 30 mins by RP-HPLC analysis", "assay_type": "ADME, subcellular", "details": "read-out: Stability"}, "[8]": {"experiment": "Efflux ratio of permeability from basolateral to apical side over apical to basolateral side in human Caco2 cells at 10 to 100 uM after 30 to 120 mins", "assay_type": "ADME, cell-based", "details": "Caco-2"}, "[9]": {"biological_target": "T3, 5-hydroxytryptamine receptor 7", "experiment": "Displacement of [3H]5-CT from human 5HT7 receptor transfected in HEK293 cells after 60 mins by Scatchard plot analysis", "assay_type": "cell-based"}, "[10]": {"experiment": "Drug uptake in Danish Landrace pig brain at 432 +/- 102 MBq, iv administered 90 mins prior to cyclosporine A challenge measured after 30 mins by PET imaging analysis", "assay_type": "ADME, organism-based, Sus scrofa", "details": "in vivo, 0.5 h"}, "[11]": {"experiment": "Drug uptake in Danish Landrace pig brain at 432 +/- 102 MBq, iv after 90 mins by PET imaging analysis", "assay_type": "ADME, organism-based, Sus scrofa", "details": "in vivo"}, "[12]": {"system": "Sus scrofa", "experiment": "Ratio of drug uptake in Danish Landrace pig brain at 432 +/- 102 MBq, iv in presence of cyclosporine A to drug uptake in Danish Landrace pig brain at 432 +/- 102 MBq, iv after 90 mins", "details": "in vivo"}}}
{"compound": "O=C(CCCCCN1CCN(c2ncccc2-c2ccncc2)CC1)NCc1ccc(F)nc1", "values": [{"measurement": "Ki", "setting": "[1]", "result": 255, "unit": "nM"}, {"measurement": "Ki", "setting": "[2]", "result": 203, "unit": "nM"}, {"measurement": "Ki", "setting": "[3]", "result": 71, "unit": "nM"}]}
{"compound": "COc1ccc(CNC(=O)CCOCCN2CCN(c3cccc(-c4ccccc4OC)c3)CC2)cc1", "values": [{"measurement": "Ki", "setting": "[1]", "result": "> 1000", "unit": "nM"}, {"measurement": "Ki", "setting": "[2]", "result": 186, "unit": "nM"}, {"measurement": "Ki", "setting": "[3]", "result": "> 1000", "unit": "nM"}]}
{"compound": "Cc1ccccc1-c1ccccc1N1CCN(CCOCCC(=O)NCc2ccc(F)nc2)CC1", "values": [{"measurement": "Ki", "setting": "[1]", "result": 365, "unit": "nM"}, {"measurement": "Ki", "setting": "[2]", "result": 875, "unit": "nM"}, {"measurement": "Ki", "setting": "[3]", "result": 12.8, "unit": "nM"}]}
{"compound": "COc1ccc(CNC(=O)CCOCCN2CCN(c3ccccc3-c3ccc(F)cc3)CC2)cc1", "values": [{"measurement": "Ki", "setting": "[1]", "result": 156, "unit": "nM"}, {"measurement": "Ki", "setting": "[2]", "result": 272, "unit": "nM"}, {"measurement": "Ki", "setting": "[3]", "result": 45.2, "unit": "nM"}]}
{"compound": "COc1ccc(-c2ccccc2N2CCN(CCOCCC(=O)NCc3ccc(F)nc3)CC2)cc1", "values": [{"measurement": "Ki", "setting": "[1]", "result": 386, "unit": "nM"}, {"measurement": "Ki", "setting": "[2]", "result": 568, "unit": "nM"}, {"measurement": "Ki", "setting": "[3]", "result": 34.5, "unit": "nM"}]}
{"compound": "COc1ccccc1-c1cccc(N2CCN(CCOCCC(=O)NCc3ccc(F)nc3)CC2)c1", "values": [{"measurement": "Ki", "setting": "[1]", "result": "> 1000", "unit": "nM"}, {"measurement": "Ki", "setting": "[2]", "result": 387, "unit": "nM"}, {"measurement": "Ki", "setting": "[3]", "result": "> 1000", "unit": "nM"}]}
{"compound": "O=C(CCOCCN1CCN(c2ccccc2-c2ccc(F)cc2)CC1)NCc1ccc(F)nc1", "values": [{"measurement": "Ki", "setting": "[1]", "result": 51.3, "unit": "nM"}, {"measurement": "Ki", "setting": "[2]", "result": 433, "unit": "nM"}, {"measurement": "Ki", "setting": "[3]", "result": 15.9, "unit": "nM"}]}
{"compound": "COc1ccc(CNC(=O)CCCCCN2CCN(c3cccnc3-c3ccncc3)CC2)cc1", "values": [{"measurement": "Ki", "setting": "[1]", "result": "> 1000", "unit": "nM"}, {"measurement": "Ki", "setting": "[2]", "result": 537, "unit": "nM"}, {"measurement": "Ki", "setting": "[3]", "result": 64.2, "unit": "nM"}]}
{"compound": "O=C(CCCCCN1CCN(c2cccnc2-c2ccncc2)CC1)NCc1ccc(F)nc1", "values": [{"measurement": "Ki", "setting": "[1]", "result": 414, "unit": "nM"}, {"measurement": "Ki", "setting": "[2]", "result": 961, "unit": "nM"}, {"measurement": "Ki", "setting": "[3]", "result": 66.7, "unit": "nM"}]}
{"compound": "[11CH3]Oc1ccc(-c2ccccc2N2CCN(CCOCCC(=O)NCc3ccncc3)CC2)cc1", "values": [{"measurement": "remaining at 5 min", "setting": "[4]", "result": 30, "unit": "%"}, {"measurement": "Drug uptake", "setting": "[5]", "result": "Active"}, {"measurement": "Drug uptake", "setting": "[6]", "result": "Active"}]}
{"compound": "COc1ccc(-c2ccccc2N2CCN(CCCCCC(=O)NCc3ccc(F)nc3)CC2)cc1", "values": [{"measurement": "Ki", "setting": "[1]", "result": 13.3, "unit": "nM"}]}
{"compound": "COc1ccc(CNC(=O)CCCCCN2CCN(c3ncccc3-c3ccncc3)CC2)cc1", "values": [{"measurement": "Ki", "setting": "[1]", "result": 816, "unit": "nM"}, {"measurement": "Ki", "setting": "[2]", "result": 614, "unit": "nM"}, {"measurement": "Ki", "setting": "[3]", "result": 26.1, "unit": "nM"}]}
{"compound": "COc1ccc(CNC(=O)CCOCCN2CCN(c3ccccc3-c3ccccc3C)CC2)cc1", "values": [{"measurement": "Ki", "setting": "[1]", "result": 162, "unit": "nM"}, {"measurement": "Ki", "setting": "[2]", "result": 743, "unit": "nM"}, {"measurement": "Ki", "setting": "[3]", "result": 33.4, "unit": "nM"}]}
{"compound": "COc1ccc(-c2ccccc2N2CCN(CCOCCC(=O)NCc3ccncc3)CC2)cc1", "values": [{"measurement": "remaining at 0.5 h, 10 µM", "setting": "[7]", "result": 82, "unit": "%"}, {"measurement": "efflux ratio at up to 100 µM", "setting": "[8]", "result": 4.48}]}
{"compound": "COc1ccc(-c2ccccc2N2CCN(CCCCCC(=O)NCc3ccncc3)CC2)cc1", "values": [{"measurement": "Bmax", "setting": "[9]", "result": 2.7, "unit": "pmol/mg"}, {"measurement": "Kd", "setting": "[9]", "result": 1.17, "unit": "nM"}, {"measurement": "remaining at 0.5 h, 10 µM", "setting": "[7]", "result": 76, "unit": "%"}, {"measurement": "efflux ratio at up to 100 µM", "setting": "[8]", "result": 3.33}]}
{"compound": "[11CH3]Oc1ccc(-c2ccccc2N2CCN(CCCCCC(=O)NCc3ccncc3)CC2)cc1", "values": [{"measurement": "Drug uptake", "setting": "[10]", "result": "Active"}, {"measurement": "Drug uptake", "setting": "[11]", "result": "Active"}, {"measurement": "Ratio", "setting": "[12]", "result": 3}]}
